Data reported in ChEMBL document CHEMBL1201862, “PubChem BioAssay data set” (2004).
Activity calls are given as the source filed them.

What was measured:
[1] = molecular target: T1, Heat shock factor protein 1 (Mus musculus, UniProt P38532); test: enhancement of HSF1-driven luciferase signal – cell-based, NIH3T3, luminescence, dose retest, confirmation (AID 435004); type: functional;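 further: stress induced by proteasome inhibitor MG132 added 30 min after compound; luciferase reporter driven by HSF1 response element in NIH3T3 cells; actives raise luminescence as potentiators of the MG132 stress response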
T1 sequence (P38532 whole entry): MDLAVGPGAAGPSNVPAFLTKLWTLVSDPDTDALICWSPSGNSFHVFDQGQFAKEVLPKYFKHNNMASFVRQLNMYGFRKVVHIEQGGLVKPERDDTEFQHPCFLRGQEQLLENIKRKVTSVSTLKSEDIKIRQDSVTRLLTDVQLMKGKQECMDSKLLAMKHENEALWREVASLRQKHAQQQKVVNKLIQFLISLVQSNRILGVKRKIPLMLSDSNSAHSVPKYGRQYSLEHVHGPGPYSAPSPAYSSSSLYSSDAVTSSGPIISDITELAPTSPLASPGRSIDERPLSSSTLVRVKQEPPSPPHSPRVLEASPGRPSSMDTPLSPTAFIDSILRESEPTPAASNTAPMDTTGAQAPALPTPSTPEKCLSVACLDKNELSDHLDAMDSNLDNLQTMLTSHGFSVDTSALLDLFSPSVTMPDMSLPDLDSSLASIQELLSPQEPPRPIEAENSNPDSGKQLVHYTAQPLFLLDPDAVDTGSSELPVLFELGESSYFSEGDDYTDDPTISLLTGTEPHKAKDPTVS

Cytochrome P450 1A2 = molecular target: T2, Cytochrome P450 1A2 (Homo sapiens, UniProt P05177);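 further: PubChem cytochrome P450 panel assay, CYP1A2 panel member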
T2 sequence (P05177 whole entry): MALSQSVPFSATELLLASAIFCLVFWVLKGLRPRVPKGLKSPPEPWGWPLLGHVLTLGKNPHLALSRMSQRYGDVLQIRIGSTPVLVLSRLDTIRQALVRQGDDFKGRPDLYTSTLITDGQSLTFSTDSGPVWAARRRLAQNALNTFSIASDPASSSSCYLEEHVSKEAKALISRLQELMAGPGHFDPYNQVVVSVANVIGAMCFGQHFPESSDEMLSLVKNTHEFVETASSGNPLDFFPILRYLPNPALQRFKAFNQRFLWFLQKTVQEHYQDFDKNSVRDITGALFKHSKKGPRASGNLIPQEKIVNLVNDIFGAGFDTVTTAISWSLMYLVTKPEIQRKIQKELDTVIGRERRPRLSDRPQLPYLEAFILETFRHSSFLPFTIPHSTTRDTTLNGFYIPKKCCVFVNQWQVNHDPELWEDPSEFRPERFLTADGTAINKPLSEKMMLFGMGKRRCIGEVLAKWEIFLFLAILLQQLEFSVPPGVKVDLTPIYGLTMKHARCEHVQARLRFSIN

[2] = alpha-synuclein stem-loop luciferase translation blockers – H4 neuroglioma cells, luminescence, confirmation (AID 1988); type: functional, cell-based
[3] = luciferase reporter signal suppression in cells – H4 neuroglioma cells, luminescence, dose response (AID 1990); type: functional, cell-based
[4] = Luminescence Cell-Based Dose Response HTS to Identify Inhibitors of 5'UTR Stem-Loop Driven Prion Protein mRNA Translation in H4 Neuroglioblastoma Cells. [Related pubchem assays: 1827 (Project Summary), 1813 (Primary HTS)]; type: functional
[5] = molecular target: T1, Heat shock factor protein 1; test: decrease of HSF1-responsive luciferase luminescence – cell-based, NIH3T3, dose retest, confirmation (AID 2382); type: functional;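 further: NIH3T3 fibroblasts with HSF1-driven luciferase reporter stressed by proteasome inhibitor MG132; luminescence from HSF1-driven luciferase expression after 8 hours of MG132 stress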
Cytochrome P450 2C19 = Cytochrome P450 2C19 (Homo sapiens, UniProt P33261); test: Cytochrome panel assay with activity outcomes. Panel member name: p450-cyp2c19 Compounds with AC50 equal or less than 10 uM are considered active; type: functional; details: read-out: AC50
Sequence of Cytochrome P450 2C19 (P33261 whole entry): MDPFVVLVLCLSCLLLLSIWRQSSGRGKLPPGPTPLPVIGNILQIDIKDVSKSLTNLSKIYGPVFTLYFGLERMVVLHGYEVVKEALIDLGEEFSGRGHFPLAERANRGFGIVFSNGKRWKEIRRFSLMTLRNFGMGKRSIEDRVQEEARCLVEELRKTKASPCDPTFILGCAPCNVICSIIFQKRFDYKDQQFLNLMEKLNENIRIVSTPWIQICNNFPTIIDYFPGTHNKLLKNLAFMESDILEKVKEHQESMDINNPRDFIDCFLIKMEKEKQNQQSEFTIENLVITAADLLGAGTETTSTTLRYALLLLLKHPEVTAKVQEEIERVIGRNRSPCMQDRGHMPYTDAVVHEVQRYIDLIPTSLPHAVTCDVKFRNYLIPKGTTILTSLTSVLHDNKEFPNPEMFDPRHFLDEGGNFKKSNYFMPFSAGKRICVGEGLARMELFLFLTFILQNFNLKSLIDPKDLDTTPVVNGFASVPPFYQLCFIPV

Cytochrome P450 2D6 = Cytochrome P450 2D6 (Homo sapiens, UniProt P10635);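 further: CYP2D6 member of a cytochrome P450 panel assay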
Sequence of Cytochrome P450 2D6 (P10635 whole entry): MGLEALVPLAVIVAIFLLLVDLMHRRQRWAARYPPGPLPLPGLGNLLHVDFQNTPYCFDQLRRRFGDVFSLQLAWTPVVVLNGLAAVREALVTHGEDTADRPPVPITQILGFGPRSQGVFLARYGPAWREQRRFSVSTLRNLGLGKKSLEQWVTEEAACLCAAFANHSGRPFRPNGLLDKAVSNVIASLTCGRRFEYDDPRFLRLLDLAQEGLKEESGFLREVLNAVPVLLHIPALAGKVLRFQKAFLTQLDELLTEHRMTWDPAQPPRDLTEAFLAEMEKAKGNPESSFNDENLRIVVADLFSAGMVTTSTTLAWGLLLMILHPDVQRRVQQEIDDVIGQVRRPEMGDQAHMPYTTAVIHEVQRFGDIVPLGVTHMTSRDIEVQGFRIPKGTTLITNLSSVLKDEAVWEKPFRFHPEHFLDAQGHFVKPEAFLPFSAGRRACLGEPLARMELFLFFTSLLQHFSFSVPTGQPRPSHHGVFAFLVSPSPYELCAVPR

[6] = viability of uninfected HEp-2 cells – cell-based, HTS, cytotoxicity control for RSV inhibitor project, dose response (AID 2410); type: functional; details: human respiratory syncytial virus

CC(C)(CNC(=O)/C=C/c1ccc(F)cc1)CNC(=O)/C=C/c1ccc(F)cc1
EC50 [1]: 3.75 µM (active)

CCCCC(=O)NC(Nc1cc(C)ccn1)(C(=O)OCC)C(F)(F)F (centres undefined)
AC50 (Cytochrome P450 1A2): 15.8 µM (inconclusive)

Cc1cccc(C)c1NC(=O)COc1ccccc1C(=O)Nc1ccc(Br)cn1
EC50 [2]: 94.5 µM (active)
EC50 [3]: > 120 µM (not active)
EC50 [4]: > 120 µM (not active)

Cc1cc(C)n(-c2cc(N3CCN(S(=O)(=O)c4ccc5ccccc5c4)CC3)ccc2[N+](=O)[O-])n1
EC50 [2]: 15.7 µM (active)
EC50 [3]: 12 µM (active)
EC50 [4]: 26.7 µM (active)

Cc1ccc2nc(-c3cccc(Br)c3)cc(C(=O)NCC3CCCO3)c2c1 (centres undefined)
EC50 [5]: > 195 µM (not active)

COc1ccc(NC(=O)CCc2nnc3ccc(NCc4ccc5c(c4)OCO5)nn23)cc1
EC50 [1]: > 260 µM (inactive)

Cn1c(COc2nnc(-c3ccc(Cl)cc3)c3ccccc23)nc2ccccc21
AC50 (Cytochrome P450 1A2): 14.1 µM (inconclusive)
AC50 (Cytochrome P450 2C19): 14.1 µM (inconclusive)

CN1CC(c2ccccn2)C2(SC(=S)N(Cc3ccccc3)C2=O)C12C(=O)Nc1ccccc12 (centres undefined)
AC50 (Cytochrome P450 2D6): 28.2 µM (inconclusive)

CN(C)C(=O)c1ccc(-c2cc(NCc3ccccc3)ncn2)cc1
AC50 (Cytochrome P450 1A2): 12.6 µM (inconclusive)
AC50 (Cytochrome P450 2D6): 39.8 µM (inconclusive)

COC(=O)[C@@]1(Cc2ccc(OC)cc2)[C@H]2c3cc(C(=O)N(C)C)n(Cc4ccc(C)c(F)c4F)c3C[C@H]2CN1C(=O)c1ccccc1
AC50 (Cytochrome P450 2D6): 12.6 µM (inconclusive)

CN1Cc2sc(NC(=S)NC(=O)c3ccccc3)c(C#N)c2CC1(C)C
EC50 [5]: 13.9 µM (active)

O=C(CN1CCN(C(c2ccccc2)c2ccccc2)CC1)N1CCOCC1
EC50 [5]: > 195 µM (not active)

CS(=O)(=O)Nc1cccc(-c2cncnc2Nc2ccccc2)c1
AC50 (Cytochrome P450 2D6): 25.1 µM (inconclusive)

COc1cccc(-c2ccc3ncnc(N4CCOCC4)c3c2)c1
AC50 (Cytochrome P450 2D6): 31.6 µM (inconclusive)

CCN(CC)C[C@@H](O)CN1CCCCc2nc(C)c(C)cc21
AC50 (Cytochrome P450 2D6): 2.51 µM (inconclusive)

O=C(CN1CC(c2ccccc2)CC1=O)NCc1ccc(F)cc1 (centres undefined)
EC50 [5]: > 195 µM (not active)

Cc1cccc(CS(=O)(=O)Cc2ccc(C(=O)NCc3cccs3)o2)c1
EC50 [5]: > 195 µM (not active)

CCOC(=O)Cc1csc(NC(=O)Nc2cccs2)n1
EC50 [5]: > 195 µM (not active)

CCN(CC)C(=O)CSc1nc2ccc(NC(=O)CSc3nnc(COc4ccccc4C)n3C)cc2s1
AC50 (Cytochrome P450 2D6): 14.1 µM (inconclusive)

CCc1ccc(C(=O)COC(=O)CNC(=O)c2cccs2)cc1
EC50 [5]: > 195 µM (not active)

Cc1ccc(-n2nc3c(=O)n(CCCC(=O)NCc4ccc(Cl)cc4)nc(C)c3c2C)cc1
EC50 [2]: 19.5 µM (active)
EC50 [3]: 0.94 µM (active)
EC50 [4]: > 120 µM (not active)

CCN(CC)S(=O)(=O)N1CCC(C(=O)N2CCC3(CC2)OCCO3)CC1
EC50 [2]: > 120 µM (not active)
EC50 [3]: > 120 µM (not active)
EC50 [4]: 17.6 µM (active)

COc1cccc(-c2nc(Nc3ccncc3)c3ccccc3n2)c1
AC50 (Cytochrome P450 2D6): 25.1 µM (inconclusive)

CN(CCc1ccccc1)C(=O)c1cc(COc2cccc(C(F)(F)F)c2)on1
EC50 [1]: > 260 µM (inactive)

C=CCC(NCc1ccco1)c1ccc(OC)c(OC)c1 (centres undefined)
EC50 [1]: > 260 µM (inactive)

Cc1ccc(C)c(S(=O)(=O)N2CCC(c3nc(O)c4nnn(Cc5ccc(F)cc5)c4n3)CC2)c1
AC50 (Cytochrome P450 2D6): 14.1 µM (inconclusive)

O=C1NC(=O)N(c2ccccc2F)C(=O)/C1=C/NCCC1=CCCCC1
EC50 [1]: > 260 µM (inactive)

COc1ccc(-n2c(C)c(C)c3c(N)ncnc32)cc1
EC50 [5]: 37.9 µM (active)

Cc1ccc(S(=O)(=O)NCCOc2nc(N3CCOCC3)nc(N3CCOCC3)n2)cc1
EC50 [1]: > 260 µM (inactive)

CCCc1cc2c(n1CCc1ccc(Cl)cc1)C(C)C1CN(C(=O)c3ccccc3)C(C)(C(=O)OC)C21 (centres undefined)
AC50 (Cytochrome P450 1A2): 25.1 µM (inconclusive)

CCOc1ccc(C2=Nn3c(nnc3-c3cccnc3)SC2)cc1
EC50 [2]: 37.8 µM (active)
EC50 [3]: 16 µM (active)
EC50 [4]: > 120 µM (not active)

N#Cc1ccccc1Cn1cc(C(=O)c2ccccc2F)c2ccccc21
EC50 [2]: > 120 µM (not active)
EC50 [3]: 54.6 µM (active)
EC50 [4]: > 120 µM (not active)

COc1ccc(Cl)cc1S(=O)(=O)N1CCC(C(=O)NCCc2ccccc2)CC1
EC50 [5]: > 195 µM (not active)

NC(=O)c1c(NC(=O)Cc2ccccc2)sc2c1CCN(Cc1ccccc1)C2
EC50 [1]: > 260 µM (inactive)

Cc1ccc(C(C)C)c(OCC(=O)Nc2ccc3c(c2)nc(CCN2CCCCC2)n3C)c1
EC50 [2]: 11.4 µM (active)
EC50 [3]: 10 µM (active)
EC50 [4]: 35.8 µM (active)

Cc1cc(C)c(NC(=O)CSc2nncn2-c2cccnc2)c(C)c1
EC50 [5]: > 195 µM (not active)

CC(C)NCC[C@@H](O)c1cc2ccccc2o1
AC50 (Cytochrome P450 2D6): 3.16 µM (inconclusive)

COc1ccccc1C(=O)N/C(=C/c1ccc(Br)cc1)C(=O)NCC(=O)O
AC50 (Cytochrome P450 1A2): 12.6 µM (inconclusive)

Cc1ccc(-c2csc3ncnc(-n4nnc5ccccc54)c23)cc1C
EC50 [2]: > 60 µM (not active)
EC50 [3]: 15 µM (active)
EC50 [4]: > 120 µM (not active)

O=c1c(-c2cc(F)cc(F)c2)nc2cnc(N3CCOCC3)nc2n1C[C@H]1CCCO1
AC50 (Cytochrome P450 1A2): 2.51 µM (inconclusive)

COc1ccc(CCNc2ncnc3c2c(C)c(C)n3CCO)cc1OC
EC50 [1]: > 260 µM (inactive)

CCOC(=O)N1CCN(C(=O)c2ccc3nc4ccc(Cl)cc4c(=O)n3c2)CC1
EC50 [2]: 7.83 µM (active)
EC50 [3]: > 120 µM (not active)
EC50 [4]: 37.5 µM (active)

CC1CC(C)(C)N=C(S)N1CCC(=O)NCc1ccc(Cl)cc1 (centres undefined)
EC50 [2]: > 120 µM (not active)
EC50 [3]: > 120 µM (not active)
EC50 [4]: 33.7 µM (active)

O=C(O)CCNS(=O)(=O)c1ccccc1C(F)(F)F
EC50 [5]: > 195 µM (not active)

CCCCCn1c(SCc2cccc(C)c2)nc2c1c(=O)[nH]c(=O)n2C
EC50 [1]: > 260 µM (inactive)

CCOc1cc(/C=C2\C(=N)N3N=C(C)SC3=NC2=O)ccc1OCCOc1ccccc1
EC50 [5]: > 195 µM (not active)

Cc1cc(N2CCN(c3ccc(F)cc3)CC2)nc2cc(O)ccc12
EC50 [5]: > 195 µM (not active)

CCCS(=O)(=O)N1CCCC(C(=O)NCc2cccnc2)C1 (centres undefined)
AC50 (Cytochrome P450 1A2): 0.00631 µM (inconclusive)
AC50 (Cytochrome P450 2C19): 15.8 µM (inconclusive)

Cc1cc(NC(=O)CCC(=O)N(CC(=O)NC2CCCC2)Cc2cccs2)no1
EC50 [1]: > 260 µM (inactive)

O=C1Nc2ccccc2N(O)N1c1cc(-c2ccccc2Cl)no1
EC50 [2]: > 120 µM (not active)
EC50 [3]: 31.6 µM (active)
EC50 [4]: 70.3 µM (active)

CC(C)NC(=O)N(O)C1N(Cc2ccc3c(c2)OCO3)C(=S)SC1(C)C (centres undefined)
EC50 [5]: > 195 µM (not active)

Cc1ccc(OCC(=O)Nn2cnc3ccccc32)cc1
AC50 (Cytochrome P450 2D6): 10 µM (inconclusive)

COc1ccc(OCCN2C(=O)c3ccccc3C2=O)cc1
EC50 [5]: > 195 µM (not active)

COC(=O)[C@@]1(Cc2ccc(F)cc2)[C@H]2c3cc(C(=O)N(C)C)n(CC4CC4)c3C[C@H]2CN1C(=O)c1ccccc1
AC50 (Cytochrome P450 1A2): 25.1 µM (inconclusive)

COc1ccc(CCNC(=O)c2ccccc2NC(=O)c2ccco2)cc1OC
AC50 (Cytochrome P450 1A2): 22.4 µM (inconclusive)

Cc1ccc(C(=O)NN2CCOCC2)cc1
AC50 (Cytochrome P450 2D6): 0.224 µM (inconclusive)

CC1CN(C(=O)c2ccccc2)/C(=N/c2cccc(S(=O)(=O)N(C)C)c2)S1 (centres undefined)
EC50 [2]: > 120 µM (not active)
EC50 [3]: > 120 µM (not active)
EC50 [4]: > 120 µM (not active)

Cn1cc(C(=O)N/N=C/c2cc(Br)cs2)c2ccccc21
EC50 [1]: 42.9 µM (active)

Cn1c2c(c3ccccc31)CC/C2=N\O
CC50 [6]: 38.5 µM (active)

COc1cc(O)cc2c1C(=O)OC(C)CCCC(=O)CCC/C=C\2 (centres undefined)
EC50 [1]: > 260 µM (inactive)

Cc1cccc(CNc2ncncc2-c2cccc(C#N)c2)c1
AC50 (Cytochrome P450 2D6): 31.6 µM (inconclusive)

O=C(Cc1ccc(Cl)c(Cl)c1)OCCN1CCCC1
AC50 (Cytochrome P450 2D6): 31.6 µM (inconclusive)
